Source: article PMC11984388, “A brain-accessible peptide modulates stroke inflammatory response and neurotoxicity by targeting BDNF-receptor TrkB-T1 specific interactome” (Theranostics, 2025)
Residues, ends and D or L forms follow the SMILES beside them. *: point of attachment. Biotin = O=C1N[C@H]2[C@H](CS[C@H]2CCCCC(=O)*)N1

How the values were obtained:
[1] = Peptide detection in brain cortex after photothrombotic ischemia; format: in vivo; conditions: 3 nmol/g i.v. 1 h after damage, male and female mice sacrificed 5 h post-stroke; Fluorescein Avidin D (Fig 5C)
Description: (§1) Vehicle (saline), Bio-TMyc or Bio-TT1Ct (3 nmol/g) were retro-orbitally injected in mice one hour after induction of photothrombotic damage or, alternatively, undamaged animals. In the first case, animals were sacrificed 5 h after damage induction while, the second group was sacrificed 30 min after peptide administration. The details of brain fixation and cryoprotection for peptide visualization and/or immunohistochemistry are provided in the Supplementary material. […]
(§2) Finally, the sa mple s were mounted in Prolong Diamond. The images were acquired using an inverted Zeiss LSM 710 laser confocal microscope (Jena, Germany) with a 40x or 63x Plan-Apochromatic oil immersion objective. Images corre spond to single se ctions and were normalized for eac h colour se para tely and process ed for presenta tion with ImageJ (NIH Image) and Fiji.
(§3) Peptide visualization and immunohistochemis tr y in brain cortex
(§4) For peptide visua liz ation in undamaged or damaged brains, animals were deeply anes thetized and intra cardially perfus ed with cold PBS and 4% paraformalde hyde in PBS. Brains were post-fixed in the sa m e fixative at 4°C for 24 h and cryoprote cted in 30% suc ros e for 48 h at 4°C. […]

[2] = Peptide delivery to brain cortex of undamaged animals; format: in vivo; conditions: 3 nmol/g i.v. (retro-orbital), undamaged male mice, sacrificed 30 min after; Fluorescein Avidin D (Fig S5)
Description: as §1, §2, §3, §4

[3] = tested on: neurons of primary cortical cultures; experiment: Neuronal viability (MTT) under NMDA excitotoxicity; format: cell-based, rat
Description: Cultures were prepared from cerebral cortex of 18-day-old Wistar rat embryos, both genders indistinctly included. Unless otherwise indicated, glial growth was inhibited after 7 days in vitro (DIVs), experimental treatments taking place after 12 DIVs. These cultures present a high percentage of neurons, combined with glial cells, mostly astrocytes. To induce excitotoxicity, cultures were incubated with NMDA (100 µM) and its co-agonist glycine (10 µM), herein denoted simply as NMDA, which induce a strong excitotoxic response in mature neurons but have no effect on astrocyte viability,[47]. When indicated, cultures were preincubated for 30 min with indicated concentrations of Tat-derived CPPs before NMDA treatment, peptides being kept in the medium along treatment. Total cell or neuronal viability assessment was established by the thiazolyl blue formazan (MTT) reduction assay. Further details are provided as Supplementary material. […]
(§5) skull for 10 min. Br ain injury encompas se s damage to vas cular endothelium, platelet activation, and subs equent microvascula r thrombotic occlus ion of the irradiate d region. The ar eas underneath this ste reotaxic position that result irradiate d ar e the prima ry motor cortex and the prima ry soma tos ens ory cortex (hindlimb and forelimb). Once completed surgery, the incision was sutured, and mice were allowed to recover.
For neuroprote ction experiments, a single dose (3 nmol/g) of peptides TMyc or TT1Ct (> 95% purity; GenScript), solubilized as 2.5 mM solutions in 0.9% NaC l, we retro-orbita lly injected 1 h af ter damage initiation. In order to improve their plas ma sta bility, thes e peptides ar e N- and C-ter modifie d by, respec tive ly, ace tyl and amide groups. Mi c e were not subje cted to other procedures before isc hemia and were naive to drug or peptide treatment. Animals were randomly allocated to the experimental groups and the resea rc hers doing the experiments were blind respec t to treatment. There was not a previous es tima tion of sa mple si z e and experiments were independently car r ied out as indicated. Twenty-four hours af ter damage induction, animals completed the beam walking test and were subs equently sa cri f i ced by cervical disloca tion to meas ure the infarc t volume, as indicated below. Be fore that, brains were se ctioned into se ri al 1-mm-thick coronal sl i ce s using a mouse brain matrix (Stoe lting, Wood Dale, IL, USA), and se ctions were completely sta ine d with 2% TTC at room temperature to visua liz e the cortical infarc ts . For immunohistochemis try, animals were deeply anes thetized 5 or 24 h af ter brain damage and intra cardially perfus ed with cold PBS and 4% paraformalde hyde in PBS as indicated below.
Primary cultures of rat cor tic al neurons to study in vitro excitotoxicity The diss ected cerebral cortices of Wis ta r rat embryos (E18), both genders included, were mechanic ally diss ociated in culture medium (Minimum Esse ntia l Me dium, ME M, Life Technologies) follow ed by se eding of the cell sus pens ion at a dens ity of 1.1x10^6 cells /ml, prepared in the sa m e medium supple me nted with 22.2 mM glucos e, 0.1 mM glutamax, 5% foetal bovine se rum (FBS), 5% donor horse se rum (HS), 100 U/ml penicillin and 100 µg/ml streptomycin. Be fore se eding, the plates were treated overnight at 37°C with 100 µg/ml poly-L-lysine and 4 µg/ml laminin. The cells were incubated at 37°C in an atmosphe re of 5% CO2 and 95% humidity. Generally, glial growth was inhibited af ter 7 days in vitro (DIV s) by adding 10 µM 5 cytos ine β-D-arabinofuranos ide (AraC) and experimental treatments took place af ter 12 DIVs. Excitotoxicity was induced by incubation with NM DA (100 µM) and glycine (10 µM) for the indicated times. As indicated, cultures were preincubated with Tat-derived CP P s before […]
Mi c e had to walk through a narrow beam (1 m × 1 cm × 1 cm) placed 50 cm above the tabletop, going from an aversive stimulus (60-W light bulb) to a black goal box with nes ting material. […]

[4] = Beam walking test after photothrombotic ischemia; format: in vivo, mice; conditions: contralateral hind paw slips, beam walking 24 h after insult, 3 nmol/g i.v. 1 h after damage, mean ± SEM, n = 10-12
[5] = Infarct volume after photothrombotic permanent ischemia; format: in vivo, mice; conditions: 24 h, TTC, relative to hemisphere volume
Description: Permanent focal ischemia was induced in cerebral cortex of adult male and female mice by microvascular photothrombosis as described with modifications. Brain injury involves vascular endothelium damage and platelet activation, followed by microvascular thrombotic occlusion of a particular region selected for illumination using a stereotaxic frame. Coordinates were +0.2 AP, +2 ML relative to Bregma and damaged area corresponded to primary motor and somatosensory cortex. For neuroprotection, a single dose (3 nmol/g) of peptides TMyc or TT1Ct (see below) was administered 1 h after damage initiation. Further details of the procedures, including measurement of infarct volume and evaluation of motor coordination and balance, are detailed as Supplementary material.
Antibodies, chemica ls and recombinant proteins, cell-penetrating peptides , prime rs , commercial as says , experimental models, recombinant DNAs and software ar e des cribe d in the Table S1, included as Supplementary material.
Animal procedures were performed follow ing Europea n Union Directive 2010/63/ EU and were approved by the CS I C and Comunidad de Ma drid (Ref PROEX 276.6/20) ethics committees.
Hous ing facilities were approved by Comunidad de Ma drid (#ES 280790000188) and conform to official regulations. Animals had sta ndard health and immune sta tus and were looked af ter by profes sional caretake rs daily. Ma l e and female mice were kept in groups of up to five in sta ndard IVC cage s while 1–2 pregnant rats occupied sta ndard cage s, always containing bedding and nes ting materials. Animals were under controlled lighting conditions (12 h light cycles ), relative humidity and temperature. Irradiated food and water were provided ad libitum.
We trie d to minimiz e animal suffering and reduce the number of sa cri f i ced animals .
Mi c e model of isc he mia by microv ascular photothr ombosis to study in vivo excitotoxicity This model of permanent focal isc hemia mimics embolic or thrombotic occlus ion of sm a ll ar ter ie s, which is freque ntly found in human stroke, and caus es a focal brain damage with histological and MR I corre lations to human patterns. The procedure was as previously des cribe d with some modific ations . Ma l e and female Ba lb/c OlaHsd mice (23–31 g; 10–16 weeks of age; Envigo Rms , Spain S.L.) were allowed to acc limatize to our facilities for at least 1 week af ter delivery, before isc hemic induction. They were kept with the sa m e cage mates, and daily examined to chec k their health sta tus . Mi c e were anes thetized with isoflurane (5% for induction, 2% for maintenance in oxygen; Abbot Labora tories , Ma drid, Spain) and then placed in a ste reotaxic frame (Naris hige Group, Tokyo, Ja pan). Body temperature was maintained at 36–37°C using a se l f-regulating heating blanket (Cibertec, Ma drid, Spain). A midline sc al p incision was made, the skull was expos ed, and both Bregma and Lambda points were identifie d.
A cold- light (Sc hott KL 2500 LCD; Schott Glas s, Ma inz, Germany) with a fibre optic bundle of 1.5 mm in diameter was centred using a micromanipula tor on the right side , at 0.2 mm anterior and 2.0 mm lateral (+0.2 AP, +2 ML ) relative to Bregma. […] Five minutes later, the brain was illumina ted (600 lms, 3,000 K) through the intact […]
as §5, with “recover. […]” for “recover.”

Compound | Time of peptide detection in brain cortex after administration [1] | Crossing of the BBB and delivery to cortical cells [2] | Neuronal viability ([3]; CPPs 0: peptide and NMDA (100 µM) at the same time, viability after 4 h of excitotoxicity, relative to untreated cells (100%), mean, n = 4-8 (Fig S4)) [%] | Neuronal viability ([3]; CPPs 30: peptide added 30' post-NMDA (100 µM), viability after 4 h of excitotoxicity, relative to untreated cells (100%), mean, n = 4-8 (Fig S4)) [%] | Neuronal viability ([3]; CPPs 60: peptide added 60' post-NMDA (100 µM), viability after 4 h of excitotoxicity, relative to untreated cells (100%), mean, n = 4-8 (Fig S4)) [%] | Neuronal viability ([3]; dose-response experiment (Fig 3B): peptide 15 µM preincubated 30 min, NMDA 2 h, mean ± SEM, n = 8) [%] | Number of slips ([4]; female mice) | Number of slips ([4]; male mice) | Infarct volume (%) ([5]; female mice, 3 nmol/g i.v. 1 h after damage, mean, n = 9-10) | Infarct volume (%) ([5]; male + female mice, 3 nmol/g i.v. 1 h after damage induction, mean ± SEM, n = 19, n = 20) | Infarct volume (%) ([5]; male mice, 3 nmol/g i.v. 1 h after damage, mean, n = 9-10)
CC[C@H](C)[C@H](NC(=O)[C@H](CCCCN)NC(=O)[C@H](Cc1c[nH]cn1)NC(=O)[C@H](Cc1ccccc1)NC(=O)[C@H](CC(C)C)NC(=O)[C@@H](NC(=O)[C@H](Cc1ccccc1)NC(=O)[C@@H]1CCCN1C(=O)[C@@H]1CCCN1C(=O)[C@H](CCCNC(=N)N)NC(=O)[C@H](CCCNC(=N)N)NC(=O)[C@H](CCCNC(=N)N)NC(=O)[C@H](CCC(N)=O)NC(=O)[C@H](CCCNC(=N)N)NC(=O)[C@H](CCCNC(=N)N)NC(=O)[C@H](CCCCN)NC(=O)[C@H](CCCCN)NC(=O)[C@H](CCCNC(=N)N)NC(=O)CNC(=O)[C@H](Cc1ccc(O)cc1)NC(=O)CCCC[C@@H]1SC[C@@H]2NC(=O)N[C@@H]21)C(C)C)C(=O)N1CCC[C@H]1C(=O)N[C@@H](CC(C)C)C(=O)N[C@@H](CC(=O)O)C(=O)NCC(N)=O [Bio-TT1Ct] (Biotin-YGRKKRRQRRRPPFVLFHKIPLDG-NH2) | at least 4 h | able to cross the BBB and efficiently reach most cortical cells in 30 min | – | – | – | – | – | – | – | – | –
Ac-YGRKKRRQRRRAEEQKLISEEDLLR-NH2 [TMyc, reference compound] | – | – | 36 | 37 | 37 | 13 ± 9 | 5 ± 1 | 10 ± 1 | 15 ± 2 | 17 ± 2 | 20 ± 1
